In patent US20220000870A1, “TREATMENT OF CANCER” (MingSight Pharmaceuticals, Inc., priority 2016, published 2022):

Key:
HBL1 cells [1] = assay: IL-6 assay (ELISA of supernatant); format: cell-based; conditions: CD79 mutant, 48 hours, data not shown
Human PKC delta = Human PKC delta (Homo sapiens, UniProt Q05655); assay: Inhibition of PKC isoforms, in vitro assay; format: biochemical
Description: The methods for these determinations have been described (Grant, et al. 2010, Eur J Pharmacol. 627:16-25).

OCI-Ly3 cells [2] = assay: Cell proliferation and survival assay (MTT); format: cell-based; conditions: 96 hours
Description: (§1) TMD8 cells were grown in MEM media supplemented with 10% fetal calf serum (FCS), non-essential vitamin mix, and penicillin-streptomycin antibiotics (pen-strep). HBL1 cells were grown in RPMI-1640 media supplemented with 10% FCS and pen-strep. OCI-Ly3 cells were grown in DMEM media with 15% FCS, non-essential vitamin mix, pen-strep, and 25 mM HEPES buffer. Cells were maintained in suspension culture, fed twice weekly, and split 1:3 approximately every two weeks (TMD8, OCI-Ly3) or weekly (HBL1). Cells were cultured and maintained as described above, with cells always fed on the day prior to assay. Proliferation and survival of cells was quantified using an MTT assay kit according to manufacturer's instructions (Cell Proliferation Kit 1, Roche Diagnostics, Cat. No. 11 465 007 001). Experiments were performed in the same media used by each cell type for growth and maintenance. Cells (5×10^4) were plated in 96 well plates and allowed to grow for 96 hours in the presence of inhibitors. After the exposure period was completed, MTT reagent was added for 3-4 hours. The MTT solubilization reagent was then added to stop the reaction and cells were incubated overnight at 37° C. The plate read the next day according to the kit instructions.

TMD8 cells [3] = assay: Cell proliferation and survival assay (MTT); format: cell-based; conditions: for Inhibition of cell proliferation and survival: TMD8 cells, MTT, 96 hours
Description: as §1

OCI-Ly3 cells [4] = assay: IL-6 assay (ELISA of supernatant); format: cell-based; conditions: OCI-Ly3 cells lacking activating CD79 mutations, 48 hours
Description: (§2) TMD8 cells were grown in MEM media supplemented with 10% fetal calf serum (FCS), non-essential vitamin mix, and penicillin-streptomycin antibiotics (pen-strep). HBL1 cells were grown in RPMI-1640 media supplemented with 10% FCS and pen-strep. OCI-Ly3 cells were grown in DMEM media with 15% FCS, non-essential vitamin mix, pen-strep, and 25 mM HEPES buffer. Cells were maintained in suspension culture, fed twice weekly, and split 1:3 approximately every two weeks (TMD8, OCI-Ly3) or weekly (HBL1).
(§3) Cells were harvested via centrifugation and resuspended twice to rinse the media of any IL-6. Cells were then plated in 96 well plates at 5×10^5 cells per well and exposed to increasing concentrations of Compound A, sotrastaurin, or media containing 0.1% DMSO (negative control). For each cell type, experiments were performed in the media used for growth and maintenance. Cells were allowed to grow for 48 hours after plating in the presence of inhibitors. Following compound exposure, cells were pelleted in the 96 well plate, supernatant was removed, and the concentration of IL-6 in the supernatant was determined using R&D Systems Haman IL-6 Quantikine® ELISA Kit (D6050) according to manufacturer's instructions.

TMD8 cells [5] = assay: IL-6 assay (ELISA of supernatant); format: cell-based; conditions: for Inhibition of IL-6 production: TMD8 cells, CD79 mutant, 48 hours
Description: as §2, §3

TMD8 cells [6] = assay: Mouse xenograph model of DLBCL; format: in vivo, SCID mice
Description: To test the efficacy of Compound A in vivo, TMD8 cells were grown and subcutaneously injected into SCID mice. Large scale suspension culture of TMD8 cells was performed in T250 flasks, where cells were expanded weekly. Animals (n=24) were inoculated with 10×10^6 cells (10×10^6 cells in 100 μL volume of 50% Matrigel®) subcutaneously in the animal's right flank.

circulating lymphocytes = assay: Peripheral lymphocyte levels, multiple ascending dose study; format: in vivo, human; conditions: healthy humans, 50, 100, 150, 200 mg BID, 14 days
Description: Normal, healthy human patients received various doses of Compound A for 14 days of dosing. The dose levels were as follows: cohort 1: 50 mg, BID; cohort 2: 100 mg, BID; cohort 3, 150 mg, BID; and cohort 4, 200 mg BID.

HBL1 cells [7] = assay: Cell proliferation and survival assay (MTT); format: cell-based; conditions: 96 hours, data not shown
[8] = 120 mg/kg BID, SCID mice with TMD8 tumors

Chain of Human PKC delta (Q05655 whole entry, canonical isoform): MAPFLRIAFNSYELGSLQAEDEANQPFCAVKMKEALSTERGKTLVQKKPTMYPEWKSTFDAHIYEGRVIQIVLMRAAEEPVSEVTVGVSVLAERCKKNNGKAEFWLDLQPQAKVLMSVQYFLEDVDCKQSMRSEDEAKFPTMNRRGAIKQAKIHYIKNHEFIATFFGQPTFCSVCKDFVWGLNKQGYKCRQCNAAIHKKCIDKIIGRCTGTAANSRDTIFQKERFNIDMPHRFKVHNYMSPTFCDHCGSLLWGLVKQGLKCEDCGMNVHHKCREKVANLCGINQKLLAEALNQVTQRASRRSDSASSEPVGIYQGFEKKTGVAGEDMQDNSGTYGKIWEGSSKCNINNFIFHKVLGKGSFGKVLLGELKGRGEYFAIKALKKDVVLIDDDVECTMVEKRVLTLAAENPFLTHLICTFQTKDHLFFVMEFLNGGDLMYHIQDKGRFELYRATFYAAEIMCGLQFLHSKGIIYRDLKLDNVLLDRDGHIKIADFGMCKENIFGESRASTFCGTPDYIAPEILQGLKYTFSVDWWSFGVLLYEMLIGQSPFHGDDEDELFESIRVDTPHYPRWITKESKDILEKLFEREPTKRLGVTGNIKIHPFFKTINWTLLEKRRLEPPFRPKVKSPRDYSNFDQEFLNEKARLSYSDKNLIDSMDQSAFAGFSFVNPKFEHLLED

Compound | Inhibition of IL-6 production (HBL1 cells [1]) | Inhibition of PKC delta (in words) (Human PKC delta) | Inhibition of cell proliferation and survival (OCI-Ly3 cells [2]) | Potency in cell proliferation assay compared to sotrastaurin (TMD8 cells [3]) | Inhibition of cell proliferation and survival (TMD8 cells [3]) | Inhibition of IL-6 production (OCI-Ly3 cells [4]) | Potency in IL-6 assay compared to sotrastaurin (TMD8 cells [5]) | Inhibition of IL-6 production (TMD8 cells [5]) | Mean weight of vehicle treated group greater than Compound A treated animals (TMD8 cells [6]; 120 mg/kg BID) [g] | Body weight change from day 24-28 (TMD8 cells [6]; [8]) | Body weight, first 10 days of treatment (TMD8 cells [6]; [8]) | Tumor growth (in words) (TMD8 cells [6]; study days 20 to 28, 120 mg/kg BID) | Number of circulating lymphocytes (circulating lymphocytes) | Inhibition of cell proliferation and survival (HBL1 cells [7])
Cc1ncc(F)c(Nc2n[nH]c3c2CN(C(=O)N2C[C@@H](C)N(CC4CCOCC4)C[C@@H]2C)C3(C)C)n1 [Compound A, 5-{[(2S,5R)-2,5-dimethyl-4-(tetrahydro-2H-pyran-4-ylmethyl)piperazin-1-yl]carbonyl}-N-(5-fluoro-2-methylpyrimidin-4-yl)-6,6-dimethyl-1,4,5,6-tetrahydropyrrolo[3,4-c]pyrazol-3-amine] | dose-dependent inhibition | does not inhibit PKC delta to any appreciable degree | not affected by either compound except at the highest doses tested | modestly more potent | dose-dependent inhibition | not affected | slightly more potent | dose-dependent inhibition | 1.8 | no increase in body weight | steady, slow increase | no appreciable amounts of tumor growth | dose dependent increase | dose-dependent inhibition
CN1CCN(c2nc(C3=C(c4c[nH]c5ccccc45)C(=O)NC3=O)c3ccccc3n2)CC1 [sotrastaurin, reference compound] |  |  | not affected by either compound except at the highest doses tested |  | dose dependent inhibition | not affected |  | dose dependent inhibition |  |  |  |  |  | 
